Results on 30 compounds are retold here after patent publication US12441691B2 (Cytokinetics, Inc., priority 2020, dated 2025).

This assay concerns rabbit skeletal myofibrils (fast skeletal myofibrils). Nature of the assay: Activation of fast skeletal myofibrils (PUMA assay, AC1.4). It counts as biochemical. The note with it: calcium at pCa25, AC1.4 = concentration at which the compound increased the enzymatic activity. The method, boiled down:
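Detergent-washed rabbit psoas myofibrils (~90% fast fibers), calcium set to give 25% of maximal rate (pCa25). ATPase followed by pyruvate kinase/lactate dehydrogenase-coupled NADH oxidation, absorbance at 340 nm. PM12 buffer: 12 mM PIPES, 2 mM MgCl2, 1 mM DTT, pH 6.8.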

For `CCOC(=O)c1ccc(C(=O)N2Cc3ccccc3NC(=O)[C@@H]2[C@@H](C)CC)[nH]1` [Compound 163, ethyl 5-((S)-3-((S)-sec-butyl)-2-oxo-2,3,4,5-tetrahydro-1H-benzo[e][1,4]diazepine-4-carbonyl)-1H-pyrrole-2-carboxylate], the AC1.4 was 0.05 µM.

`CC[C@H](C)[C@H]1C(=O)Nc2ccccc2CN1C(=O)c1cnn(C[C@@H](C)O)c1` [Compound 164, (S)-3-((S)-sec-butyl)-4-(1-((R)-2-hydroxypropyl)-1H-pyrazole-4-carbonyl)-1,3,4,5-tetrahydro-2H-benzo[e][1,4]diazepin-2-one]: the AC1.4 is 0.10 µM.

On to `CC[C@H](C)[C@H]1C(=O)Nc2ccccc2CN1C(=O)c1ccc2c(c1)NC(=O)C2` [Compound 165, (S)-3-((S)-sec-butyl)-4-(2-oxoindoline-6-carbonyl)-1,3,4,5-tetrahydro-2H-benzo[e][1,4]diazepin-2-one], for which the AC1.4 came to 0.14 µM.

In the case of `CC[C@H](C)[C@H]1C(=O)Nc2ccccc2CN1C(=O)c1ccc(C(=O)O)[nH]1` [Compound 166, 5-((S)-3-((S)-sec-butyl)-2-oxo-2,3,4,5-tetrahydro-1H-benzo[e][1,4]diazepine-4-carbonyl)-1H-pyrrole-2-carboxylic acid], the AC1.4 was determined as 0.45 µM.

With `CC[C@H](C)[C@H]1C(=O)Nc2ccccc2CN1C(=O)c1ccc2c(c1)CC(=O)N2` [Compound 167, (S)-3-((S)-sec-butyl)-4-(2-oxoindoline-5-carbonyl)-1,3,4,5-tetrahydro-2H-benzo[e][1,4]diazepin-2-one], the AC1.4 was determined as 0.05 µM.

Consider `CC[C@H](C)[C@H]1C(=O)Nc2ccccc2CN1C(=O)c1cc2nc(C(N)=O)ccc2[nH]1` [Compound 168, 2-((S)-3-((S)-sec-butyl)-2-oxo-2,3,4,5-tetrahydro-1H-benzo[e][1,4]diazepine-4-carbonyl)-1H-pyrrolo[3,2-b]pyridine-5-carboxamide], for which the AC1.4 turned out to be 0.04 µM.

For the compound `CC[C@H](C)[C@H]1C(=O)Nc2ccccc2CN1C(=O)c1ccc2[nH]c(C(N)=O)cc2n1` [Compound 169, 5-((S)-3-((S)-sec-butyl)-2-oxo-2,3,4,5-tetrahydro-1H-benzo[e][1,4]diazepine-4-carbonyl)-1H-pyrrolo[3,2-b]pyridine-2-carboxamide], the AC1.4 is 0.06 µM.

Turning to `CC[C@H](C)[C@H]1C(=O)Nc2ccccc2CN1C(=O)c1ccc(=O)n(CCO)c1` [Compound 170, (S)-3-((S)-sec-butyl)-4-(1-(2-hydroxyethyl)-6-oxo-1,6-dihydropyridine-3-carbonyl)-1,3,4,5-tetrahydro-2H-benzo[e][1,4]diazepin-2-one], the AC1.4 stood at 0.79 µM.

As for `CC[C@H](C)[C@H]1C(=O)Nc2ccccc2CN1C(=O)c1nc2cccnc2[nH]1` [Compound 171, (S)-3-((S)-sec-butyl)-4-(3H-imidazo[4,5-b]pyridine-2-carbonyl)-1,3,4,5-tetrahydro-2H-benzo[e][1,4]diazepin-2-one], the AC1.4 was found to be 0.03 µM.

As to `CC[C@H](C)[C@H]1C(=O)Nc2ccccc2CN1C(=O)c1ccn(C)c(=O)c1` [Compound 172, (S)-3-((S)-sec-butyl)-4-(1-methyl-2-oxo-1,2-dihydropyridine-4-carbonyl)-1,3,4,5-tetrahydro-2H-benzo[e][1,4]diazepin-2-one], the AC1.4 stood at 0.63 µM.

In the case of `CC[C@H](C)[C@H]1C(=O)Nc2ccccc2CN1C(=O)c1cnn(CC(N)=O)c1` [Compound 173, 2-(4-((S)-3-((S)-sec-butyl)-2-oxo-2,3,4,5-tetrahydro-1H-benzo[e][1,4]diazepine-4-carbonyl)-1H-pyrazol-1-yl)acetamide], the AC1.4 stood at 0.22 µM.

`CC[C@H](C)[C@H]1C(=O)Nc2ccccc2CN1C(=O)c1ccc(C(=O)NCCO)[nH]1` [Compound 174, 5-((S)-3-((S)-sec-butyl)-2-oxo-2,3,4,5-tetrahydro-1H-benzo[e][1,4]diazepine-4-carbonyl)-N-(2-hydroxyethyl)-1H-pyrrole-2-carboxamide]: the AC1.4 stood at 0.03 µM.

Regarding `CC[C@H](C)[C@H]1C(=O)Nc2ccccc2CN1C(=O)c1ccc(C(=O)NCC(O)CO)[nH]1` (stereo partly drawn) [Compound 175, 5-((S)-3-((S)-sec-butyl)-2-oxo-2,3,4,5-tetrahydro-1H-benzo[e][1,4]diazepine-4-carbonyl)-N-(2,3-dihydroxypropyl)-1H-pyrrole-2-carboxamide], the AC1.4 worked out at 0.04 µM.

For `CC[C@H](C)[C@H]1C(=O)Nc2ccccc2CN1C(=O)c1cc2c(=O)[nH]ncc2[nH]1` [Compound 176, (S)-3-((S)-sec-butyl)-4-(4-oxo-4,5-dihydro-1H-pyrrolo[2,3-d]pyridazine-2-carbonyl)-1,3,4,5-tetrahydro-2H-benzo[e][1,4]diazepin-2-one], the AC1.4 came out at 0.05 µM.

Regarding `CC[C@H](C)[C@H]1C(=O)Nc2ccccc2CN1C(=O)[C@@H]1CCCN1` [Compound 177, (S)-4-(L-prolyl)-3-((S)-sec-butyl)-1,3,4,5-tetrahydro-2H-benzo[e][1,4]diazepin-2-one], the AC1.4 worked out at 2.64 µM.

As for `CC[C@H](C)[C@H]1C(=O)Nc2ccccc2CN1C(=O)[C@H]1CCCN1` [Compound 178, (S)-4-(D-prolyl)-3-((S)-sec-butyl)-1,3,4,5-tetrahydro-2H-benzo[e][1,4]diazepin-2-one], the AC1.4 was found to be 3.37 µM.

On to `CC[C@H](C)[C@H]1C(=O)Nc2ccccc2CN1C(=O)c1cn(C)nc1CCO` [Compound 179, (S)-3-((S)-sec-butyl)-4-(3-(2-hydroxyethyl)-1-methyl-1H-pyrazole-4-carbonyl)-1,3,4,5-tetrahydro-2H-benzo[e][1,4]diazepin-2-one], for which the AC1.4 was 2.27 µM.

Regarding `CC[C@H](C)[C@H]1C(=O)Nc2ccccc2CN1C(=O)c1ccc(C(=O)N2CC(O)C2)[nH]1` [Compound 180, (S)-3-((S)-sec-butyl)-4-(5-(3-hydroxyazetidine-1-carbonyl)-1H-pyrrole-2-carbonyl)-1,3,4,5-tetrahydro-2H-benzo[e][1,4]diazepin-2-one], the AC1.4 is 0.10 µM.

In the case of `CC[C@H](C)[C@H]1C(=O)Nc2ccccc2CN1C(=O)c1cc2nccnc2[nH]1` [Compound 181, (S)-3-((S)-sec-butyl)-4-(5H-pyrrolo[2,3-b]pyrazine-6-carbonyl)-1,3,4,5-tetrahydro-2H-benzo[e][1,4]diazepin-2-one], the AC1.4 turned out to be 0.04 µM.

As to `CC[C@H](C)[C@H]1C(=O)Nc2ccccc2CN1C(=O)c1cnn(CCO)c1N` [Compound 182, (S)-4-(5-amino-1-(2-hydroxyethyl)-1H-pyrazole-4-carbonyl)-3-((S)-sec-butyl)-1,3,4,5-tetrahydro-2H-benzo[e][1,4]diazepin-2-one], the AC1.4 stood at 0.07 µM.

As to `CC[C@H](C)[C@H]1C(=O)Nc2ccccc2CN1C(=O)CCN1CC[C@H](O)C1` [Compound 184, (S)-3-((S)-sec-butyl)-4-(3-((S)-3-hydroxypyrrolidin-1-yl)propanoyl)-1,3,4,5-tetrahydro-2H-benzo[e][1,4]diazepin-2-one], the AC1.4 was determined as 0.55 µM.

In the case of `CC[C@H](C)[C@H]1C(=O)Nc2ccccc2CN1C(=O)CCN1CC[C@@H](O)C1` [Compound 185, (S)-3-((S)-sec-butyl)-4-(3-((R)-3-hydroxypyrrolidin-1-yl)propanoyl)-1,3,4,5-tetrahydro-2H-benzo[e][1,4]diazepin-2-one], the AC1.4 is 0.92 µM.

As for `CC[C@H](C)[C@H]1C(=O)Nc2ccccc2CN1C(=O)CCN1CCC[C@H]1C(N)=O` [Compound 186, (S)-1-(3-((S)-3-((S)-sec-butyl)-2-oxo-1,2,3,5-tetrahydro-4H-benzo[e][1,4]diazepin-4-yl)-3-oxopropyl)pyrrolidine-2-carboxamide], the AC1.4 worked out at 2.18 µM.

On to `CC[C@H](C)[C@H]1C(=O)Nc2ccccc2CN1C(=O)CCN1CCC[C@@H]1C(N)=O` [Compound 187, (R)-1-(3-((S)-3-((S)-sec-butyl)-2-oxo-1,2,3,5-tetrahydro-4H-benzo[e][1,4]diazepin-4-yl)-3-oxopropyl)pyrrolidine-2-carboxamide], for which the AC1.4 stood at 1.39 µM.

On to `CC[C@H](C)[C@H]1C(=O)Nc2ccccc2CN1C(=O)[C@H]1CCCN1CCC(N)=O` [Compound 188, 3-((R)-2-((S)-3-((S)-sec-butyl)-2-oxo-2,3,4,5-tetrahydro-1H-benzo[e][1,4]diazepine-4-carbonyl)pyrrolidin-1-yl)propanamide], for which the AC1.4 is 3.46 µM.

As for `CC[C@H](C)[C@H]1C(=O)Nc2ccccc2CN1C(=O)c1cn(C)nn1` [Compound 189, (S)-3-((S)-sec-butyl)-4-(1-methyl-1H-1,2,3-triazole-4-carbonyl)-1,3,4,5-tetrahydro-2H-benzo[e][1,4]diazepin-2-one], the AC1.4 stood at 0.10 µM.

`CC[C@H](C)[C@H]1C(=O)Nc2ccccc2CN1C(=O)c1ccnnc1` [Compound 190, (S)-3-((S)-sec-butyl)-4-(pyridazine-4-carbonyl)-1,3,4,5-tetrahydro-2H-benzo[e][1,4]diazepin-2-one]: the AC1.4 was determined as 0.54 µM.

Consider `CC[C@H](C)[C@H]1C(=O)Nc2ccccc2CN1C(=O)c1cncnc1` [Compound 191, (S)-3-((S)-sec-butyl)-4-(pyrimidine-5-carbonyl)-1,3,4,5-tetrahydro-2H-benzo[e][1,4]diazepin-2-one], for which the AC1.4 is 0.19 µM.

Regarding `CC[C@H](C)[C@H]1C(=O)Nc2ccccc2CN1C(=O)c1cccnn1` [Compound 192, (S)-3-((S)-sec-butyl)-4-(pyridazine-3-carbonyl)-1,3,4,5-tetrahydro-2H-benzo[e][1,4]diazepin-2-one], the AC1.4 amounted to 0.19 µM.

For the compound `CC[C@H](C)[C@H]1C(=O)Nc2ccccc2CN1C(=O)[C@@H]1CC(=O)N(C)C1` [Compound 193, (S)-3-((S)-sec-butyl)-4-((R)-1-methyl-5-oxopyrrolidine-3-carbonyl)-1,3,4,5-tetrahydro-2H-benzo[e][1,4]diazepin-2-one], the AC1.4 came out at 0.72 µM.
